{"source": "patent US20250082587A1", "about": "“Method Of Treating Major Depressive Disorder” (CLEXIO BIOSCIENCES LTD., priority 2023, published 2025)", "system": "subjects with MDD with an inadequate response to standard antidepressant therapy", "assay": "Phase 2, randomized double blind study of 40 mg immediate release once daily esketamine as adjunct therapy; change in MADRS score", "assay_type": "in vivo, human", "settings": "for Change from baseline against placebo (MADRS): sub-analysis, 40 mg oral once daily", "protocol": "A Phase 2, randomized double blind study to assess the safety and efficacy of 40 mg immediate release once daily esketamine as an adjunct therapy for subjects with MDD with an inadequate response to standard antidepressant therapy.\nThe safety and efficacy of 65 subjects with MDD with an inadequate response to standard antidepressant therapy were assessed in a Phase 2, randomized double blind study following the administration of 40 mg of immediate release once daily esketamine as adjunct therapy.\nThe study comprised 3 phases, screening (Days 0-28), double-blind treatment (days 29-56) and post-treatment safety follow-up (days 57-70) following the last study treatment administration.\nThe study's primary efficacy endpoint was the change from baseline to week 4 in the 10 item Montgomery-Åsberg Depression Rating Scale (MADRS). Key secondary efficacy endpoints included the change in the self-rated Symptoms of Depression Questionnaire (SDQ) from Baseline to Week 4, the change in the Sheehan Disability Scale (SDS) from Baseline to Week 4, the change in the MADRS score from Baseline to Week 2 and the change in the Clinical Global Impression-Severity (CGI-S) from Baseline to Week 4.\nDuring screening, subjects were assessed for study eligibility and washed out from disallowed drugs. Inclusion criteria for the study included the subjects presenting with a baseline MADRS of at least 24.\nAfter being found eligible, subjects were randomized to receive once daily, either placebo or 40 mg of oral, immediate release, esketamine, respectively.\nSubjects received the first dose of their study drug at the study site and were then closely monitored for 3 hours to assess for potential neuropsychiatric adverse events using a comprehensive set of scales to identify sleepiness, sedation and dissociative effects. Thereafter, the subject was provided with a 1 week supply of the study drug for administration at their place of residence and instructed to take the study drug in the evening (except at the day of the weekly visit when it is taken at the study site) and not to drive for at least 8 hours following the dosing. At every subject visit, a psychiatrist evaluated the subject's MADRS score.", "data": [{"smiles": "CN[C@]1(c2ccccc2Cl)CCCCC1=O", "note": "[esketamine, (2S)-2-(2-Chlorophenyl)-2-(methylamino)cyclohexanone]", "values": [{"measurement": "improvement in the symptoms", "setting": "baseline MADRS of 28 or more, 40 mg immediate release oral, 28 days", "result": "statistically significant improvement"}, {"measurement": "improvement in depression symptoms", "setting": "baseline MADRS of less than 28, 40 mg immediate release oral, 28 days", "result": "no identifiable improvement"}, {"measurement": "Change from baseline against placebo (MADRS)", "setting": "baseline MADRS score <28, 28 days", "result": "+4.25"}, {"measurement": "Change from baseline against placebo (MADRS)", "setting": "baseline MADRS score ≥28, 28 days, p value 0.005", "result": "−7.425"}, {"measurement": "Change from baseline against placebo (MADRS)", "setting": "baseline MADRS score ≥33, 28 days, p value 0.050", "result": "−5.978"}, {"measurement": "primary efficacy endpoint (change from baseline to week 4 in MADRS) between treatment groups", "setting": "subjects who completed the study, 40 mg oral once daily vs placebo", "result": "clinically meaningful and statistically significant"}]}]}
